We go through 51 molecules from the Kinase Knowledgebase extract (Sharma et al. 2016).

For the experiment, the target named is PIK3CG (human) (UniProt P48736). Nature of the experiment: Assessment of PIK3CG Kinase Activity.
Chain of PIK3CG (human) (P48736 whole entry, looked up): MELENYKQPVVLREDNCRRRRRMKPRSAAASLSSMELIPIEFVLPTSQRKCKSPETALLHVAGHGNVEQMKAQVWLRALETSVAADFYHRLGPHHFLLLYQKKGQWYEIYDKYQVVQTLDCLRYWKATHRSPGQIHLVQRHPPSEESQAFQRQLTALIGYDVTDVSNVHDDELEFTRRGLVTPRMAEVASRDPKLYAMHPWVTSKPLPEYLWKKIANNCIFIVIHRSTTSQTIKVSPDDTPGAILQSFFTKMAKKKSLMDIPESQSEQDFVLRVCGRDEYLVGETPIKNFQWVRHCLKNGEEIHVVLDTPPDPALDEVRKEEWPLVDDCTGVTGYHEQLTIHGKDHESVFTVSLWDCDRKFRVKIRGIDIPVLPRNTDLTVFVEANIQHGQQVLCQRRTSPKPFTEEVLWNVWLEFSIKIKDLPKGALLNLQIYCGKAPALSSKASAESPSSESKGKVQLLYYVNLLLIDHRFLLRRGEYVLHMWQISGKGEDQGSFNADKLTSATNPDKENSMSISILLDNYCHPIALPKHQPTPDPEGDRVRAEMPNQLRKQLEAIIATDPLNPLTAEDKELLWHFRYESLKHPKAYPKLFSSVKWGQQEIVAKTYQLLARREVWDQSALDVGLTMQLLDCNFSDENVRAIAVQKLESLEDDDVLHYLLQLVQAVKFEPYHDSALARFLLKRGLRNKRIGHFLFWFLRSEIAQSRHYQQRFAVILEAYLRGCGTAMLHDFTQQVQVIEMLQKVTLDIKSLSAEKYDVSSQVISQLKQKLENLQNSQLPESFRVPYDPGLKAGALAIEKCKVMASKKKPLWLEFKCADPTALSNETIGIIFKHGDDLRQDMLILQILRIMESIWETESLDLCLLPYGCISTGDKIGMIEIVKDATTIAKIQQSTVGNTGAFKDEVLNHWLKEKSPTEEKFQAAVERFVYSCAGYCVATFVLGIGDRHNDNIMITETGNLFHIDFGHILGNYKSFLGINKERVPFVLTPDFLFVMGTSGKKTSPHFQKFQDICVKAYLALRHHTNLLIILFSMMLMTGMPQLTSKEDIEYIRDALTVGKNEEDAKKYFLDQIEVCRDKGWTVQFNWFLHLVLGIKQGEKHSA

What is called IC50 is the point on the concentration scale where inhibition reaches its midpoint. Molecule `O=C(Nc1nc2c(s1)-c1c(c(-c3cccnc3)nn1-c1ccccc1Cl)CC2)N1CCC(NC(=O)C(F)(F)F)C1` (stereo unspecified) came in with a 50% inhibitory concentration (IC50) of less than 800 nM.

With `CC(C)c1cnc(CCNC(=O)Nc2nc3c(s2)-c2c(c(-c4cncnc4)nn2-c2ccccc2Cl)CC3)o1`, the IC50 is less than 800 nM.

The molecule `CN(C)C(=O)Nc1nc2c(s1)-c1c(c(-c3cncnc3)nn1-c1ccccc1F)CC2` had a concentration for half-maximal inhibition (IC50) of less than 800 nM.

On to `O=C(NCc1ccc(-c2ncc[nH]2)cc1)Nc1nc2c(s1)-c1c(c(-c3cncnc3)nn1-c1ccccc1Cl)CC2`, for which the concentration for half-maximal inhibition (IC50) was less than 800 nM.

For `CCn1cnc(CCNC(=O)Nc2nc3c(s2)-c2c(c(-c4cccnc4)nn2-c2ccccc2Cl)CC3)c1`, the IC50 is less than 800 nM.

For `CN(C)CCNC(=O)Nc1nc2c(s1)-c1c(c(-c3cccnc3)nn1-c1ccccc1Cl)CC2`, the IC50 is less than 800 nM.

The molecule `CC(C)(C)OC(=O)CCNC(=O)Nc1nc2c(s1)-c1c(c(Nc3ccccn3)nn1-c1ccccc1)CC2` yielded an IC50 of less than 800 nM.

For `COc1ccc(S(=O)(=O)NCCNC(=O)Nc2nc3c(s2)-c2c(c(-c4ccccc4)nn2-c2ccccc2Cl)CC3)cc1`, the IC50 is less than 800 nM.

With `CNC(=O)Nc1nc2c(s1)-c1c(c(-c3ccccc3)nn1-c1cccc(Cl)c1)CC2`, the 50% inhibitory concentration (IC50) is less than 800 nM.

Molecule `CC(C)(C)OC(=O)N1CCC[C@@H]1CNC(=O)Nc1nc2c(s1)-c1c(c(-c3cccnc3)nn1-c1ccccc1Cl)CC2` registered an IC50 of less than 800 nM.

`C[C@@H](NC(=O)Nc1nc2c(s1)-c1c(c(-c3ccccc3)nn1-c1ccccc1Cl)CC2)C(=O)N1CCOCC1` returned an IC50 of less than 800 nM.

For the molecule `CNC(=O)[C@H](C)NC(=O)Nc1nc2c(s1)-c1c(c(-c3ccccc3)nn1-c1ccccc1Cl)CC2`, the IC50 was less than 800 nM.

For `CC(NC(=O)Nc1nc2c(s1)-c1c(c(-c3cccnc3)nn1-c1ccccc1Cl)CC2)c1cccc(NC(=O)OC(C)(C)C)c1` (stereo unspecified), the IC50 is less than 800 nM.

On to `CC(C)(C)OC(=O)N1CCC[C@@H]1CNC(=O)Nc1nc2c(s1)-c1c(c(-c3cncnc3)nn1-c1ccccc1Cl)CC2`, for which the half-maximal inhibitory concentration (IC50) is less than 800 nM.

Molecule `CNC(=O)[C@@H]1CCCC[C@H]1NC(=O)Nc1nc2c(s1)-c1c(c(-c3ccccc3)nn1-c1ccccc1Cl)CC2` registered an IC50 of less than 800 nM.

With `O=C1Cc2ccccc2CN1CC1CCN(C(=O)Nc2nc3c(s2)-c2c(c(-c4cccnc4)nn2-c2ccccc2Cl)CC3)C1` (stereo unspecified), the half-inhibitory concentration (IC50) was less than 800 nM.

`O=C(NCCCn1ccnc1)Nc1nc2c(s1)-c1c(c(-c3cncnc3)nn1-c1ccccc1Cl)CC2` gave an IC50 of less than 800 nM.

`Cc1c[nH]c(CCNC(=O)Nc2nc3c(s2)-c2c(c(-c4cccnc4)nn2-c2ccccc2Cl)CC3)n1` showed a half-inhibitory concentration (IC50) of less than 800 nM.

In the case of `CCOC(=O)CCCNC(=O)Nc1nc2c(s1)-c1c(c(-c3ccccc3)nn1-c1ccccc1Cl)CC2`, the concentration for half-maximal inhibition (IC50) was less than 800 nM.

`O=C(NCCc1cccc(C(F)(F)F)c1)Nc1nc2c(s1)-c1c(c(-c3cncnc3)nn1-c1ccccc1Cl)CC2` had a half-inhibitory concentration (IC50) of less than 800 nM.

The molecule `C[C@@H](C(=O)N1CCC[C@@H]1CNC(=O)Nc1nc2c(s1)-c1c(c(-c3cncnc3)nn1-c1ccccc1Cl)CC2)N(C)C(=O)OC(C)(C)C` had a concentration for half-maximal inhibition (IC50) of less than 800 nM.

The molecule `CC(C)c1noc(CCNC(=O)Nc2nc3c(s2)-c2c(c(-c4cncnc4)nn2-c2ccccc2Cl)CC3)n1` came in with an IC50 of less than 800 nM.

In turn, `N[C@@H]1CC[C@@H](NC(=O)Nc2nc3c(s2)-c2c(c(-c4ccccc4)nn2-c2ccccc2Cl)CC3)C1` showed a half-inhibitory concentration (IC50) of less than 800 nM.

`CN1CCC(n2nc(-c3cccnc3)c3c2-c2sc(NC(=O)NCCC(=O)N(C)C)nc2CC3)CC1` displayed a half-maximal inhibitory concentration (IC50) of less than 800 nM.

Molecule `COc1cccc(CNC(=O)Nc2nc3c(s2)-c2c(c(-c4cccnc4)nn2C2CCN(C4CCCC4)CC2)CC3)c1` had a concentration for half-maximal inhibition (IC50) of less than 800 nM.

Molecule `O=C(NCCCn1ccnc1)Nc1nc2c(s1)-c1c(c(-c3cncnc3)nn1-c1ccccc1F)CC2` displayed a half-maximal inhibitory concentration (IC50) of less than 800 nM.

In turn, `CN1CCC(n2nc(-c3cncnc3)c3c2-c2sc(NC(=O)NC[C@H]4CCCN4C(=O)OC(C)(C)C)nc2CC3)CC1` gave an IC50 of less than 800 nM.

On to `CC(C)(C)OC(=O)CCNC(=O)Nc1nc2c(s1)-c1c(c(-c3cccnc3)nn1C1CCN(C3CCCC3)CC1)CC2`, for which the IC50 is less than 800 nM.

Molecule `CC(C)(C)OC(=O)N1CCCC(NC(=O)Nc2nc3c(s2)-c2c(c(-c4cncnc4)nn2-c2ccccc2Cl)CC3)C1` (stereo unspecified) returned a concentration for half-maximal inhibition (IC50) of less than 800 nM.

In turn, `CC(C)c1cnc(CCNC(=O)Nc2nc3c(s2)-c2c(c(-c4cccnc4)nn2-c2ccccc2Cl)CC3)o1` had a concentration for half-maximal inhibition (IC50) of less than 800 nM.

Molecule `O=C(Nc1nc2c(s1)-c1c(cnn1-c1ccccc1)CC2)N1CCCCC1` came in with an IC50 of less than 800 nM.

`O=C(NCCNS(=O)(=O)C(F)(F)F)Nc1nc2c(s1)-c1c(c(-c3ccccc3)nn1-c1ccccc1Cl)CC2` gave an IC50 of less than 800 nM.

Molecule `CNC(=O)[C@@H](C)NC(=O)Nc1nc2c(s1)-c1c(c(-c3ccccc3)nn1-c1ccccc1Cl)CC2` came in with an IC50 of less than 800 nM.

In turn, `O=C(NCc1ccc(N2CCNC2=O)cc1)Nc1nc2c(s1)-c1c(c(-c3ccccc3)nn1-c1cccc(Cl)c1)CC2` gave a 50% inhibitory concentration (IC50) of less than 800 nM.

For `O=C(NC[C@H]1CCCN1C(=O)N1CCCC1)Nc1nc2c(s1)-c1c(c(-c3cncnc3)nn1-c1ccccc1Cl)CC2`, the IC50 is less than 800 nM.

Molecule `CN1CCN(C(=O)Nc2nc3c(s2)-c2c(cnn2-c2ccccc2)CC3)CC1` showed an IC50 of less than 800 nM.

`CC(C)(C)OC(=O)CNC(=O)Nc1nc2c(s1)-c1c(c(-c3cccnc3)nn1C1CCN(C3CCCC3)CC1)CC2` returned a concentration for half-maximal inhibition (IC50) of less than 800 nM.

In turn, `CN1CCN(CCCNC(=O)Nc2nc3c(s2)-c2c(c(-c4cncnc4)nn2-c2ccccc2Cl)CC3)CC1` came in with an IC50 of less than 800 nM.

Turning to `CCn1cnc(CCNC(=O)Nc2nc3c(s2)-c2c(c(C4CC4)nn2-c2ccccc2Cl)CC3)c1`, the half-maximal inhibitory concentration (IC50) is less than 800 nM.

For `C[C@H](NC(=O)Nc1nc2c(s1)-c1c(c(-c3ccccc3)nn1-c1ccccc1Cl)CC2)C(=O)N1CCCCC1`, the IC50 was less than 800 nM.

As for `CCOC(=O)N1CC[C@H](CNC(=O)Nc2nc3c(s2)-c2c(c(-c4cncnc4)nn2-c2ccccc2Cl)CC3)C1`, the IC50 is less than 800 nM.

With `O=C(Nc1nc2c(s1)-c1c(c(-c3cccnc3)nn1-c1ccccc1Cl)CC2)N1CCCC(c2ccccc2O)C1` (stereo unspecified), the IC50 was less than 800 nM.

With `CC(C)(C)OC(=O)N1CCC(C(=O)N2CCC[C@@H]2CNC(=O)Nc2nc3c(s2)-c2c(c(-c4cncnc4)nn2-c2ccccc2Cl)CC3)C1` (stereo partly specified), the IC50 was less than 800 nM.

On to `O=C(NCCCN1CCOCC1)Nc1nc2c(s1)-c1c(c(-c3cncnc3)nn1-c1ccccc1Cl)CC2`, for which the half-inhibitory concentration (IC50) was less than 800 nM.

Regarding `CCCn1cnc(CCNC(=O)Nc2nc3c(s2)-c2c(c(-c4cncnc4)nn2-c2ccccc2Cl)CC3)c1`, the IC50 is less than 800 nM.

The molecule `CC(=O)Nc1ccc(S(=O)(=O)NCCNC(=O)Nc2nc3c(s2)-c2c(c(-c4ccccc4)nn2-c2ccccc2Cl)CC3)cc1` yielded an IC50 of less than 800 nM.

Regarding `O=C(NCCC(=O)N1CCOCC1)Nc1nc2c(s1)-c1c(c(-c3ccccc3)nn1-c1ccccc1Cl)CC2`, the IC50 was less than 800 nM.

`O=C(NCc1nnn[nH]1)Nc1nc2c(s1)-c1c(c(-c3cncnc3)nn1-c1ccccc1Cl)CC2` returned an IC50 of less than 800 nM.

Consider `O=C(NC[C@H]1CCCN1C(=O)Cc1ccccc1)Nc1nc2c(s1)-c1c(c(-c3cncnc3)nn1-c1ccccc1Cl)CC2`, for which the IC50 is less than 800 nM.

`NC(=O)c1cccc(CNC(=O)Nc2nc3c(s2)-c2c(c(-c4cncnc4)nn2-c2ccccc2Cl)CC3)c1` had a 50% inhibitory concentration (IC50) of less than 800 nM.

In turn, `CNC(=O)c1cccc(CNC(=O)Nc2nc3c(s2)-c2c(c(-c4cccnc4)nn2C2CCN(C4CCCC4)CC2)CC3)c1` came in with an IC50 of less than 800 nM.
